In test [1] the target is T1, human NTCP (Homo sapiens, UniProt Q14973).
T1 sequence (Q14973 1-349): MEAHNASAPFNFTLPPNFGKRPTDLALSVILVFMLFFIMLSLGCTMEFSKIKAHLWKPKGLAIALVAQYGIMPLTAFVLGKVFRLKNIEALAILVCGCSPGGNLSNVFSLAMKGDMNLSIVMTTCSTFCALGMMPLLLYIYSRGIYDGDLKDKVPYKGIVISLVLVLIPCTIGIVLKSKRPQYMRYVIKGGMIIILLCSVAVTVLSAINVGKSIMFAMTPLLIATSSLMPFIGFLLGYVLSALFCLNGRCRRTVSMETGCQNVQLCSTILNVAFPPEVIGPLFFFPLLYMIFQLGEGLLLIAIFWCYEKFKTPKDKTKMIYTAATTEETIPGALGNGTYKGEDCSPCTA
Put plainly: Screening taurocholate uptake assay (96-well, [14C]taurocholate, 10 µM drug).

The target in test [2] is T1, human NTCP. The test can be described thus: Screening fluorescent competitive Myrcludex B-FITC binding assay (96-well, 10 µM drug).
The mark [3] stands for this setting: combined ranking from functional and binding screening assays.
Where [4] appears, read: screen, 10 µM drug, taurocholate uptake.
The mark [5] stands for this setting: screen, 10 µM drug, Myrcludex B-FITC binding.
Setting [6] is: Prestwick library screen, 10 µM drug, B-score of taurocholate uptake.
The mark [7] stands for this setting: combined ranking from functional and binding assay B-scores.
Where [8] appears, read: Prestwick library screen, 10 µM drug, B-score of Myrcludex B-FITC binding.
The mark [9] stands for this setting: Prestwick library screen, taurocholate uptake, 10 µM drug.
Where [10] appears, read: ranking score beside the functional and binding assay B-scores of the screen.
Where [11] appears, read: Prestwick library screen, Myrcludex B-FITC binding, 10 µM drug.

Structures can show the parent of a compound that is named as a salt. Where two headings read alike, the source gives them in different places.

Consider `O=C(O)c1cn(-c2ccc(F)cc2)c2cc(N3CCNCC3)c(F)cc2c1=O` [Sarafloxacin], for which the Ranking score in test [1] (setting [3]) is 305.771. In test [1] (setting [4]), the B-score functional assay is -0.49. The same molecule had a B-score binding assay in test [2] (setting [5]) of -0.967.

Spiramycin yielded a B-score functional assay in test [1] (setting [6]) of 0.83. Also, the Ranking score in test [1] (setting [7]) came to 1002.4. Further, the B-score binding assay in test [2] (setting [8]) came out at 0.801.

For `Nc1ccc(O)c(C(=O)O)c1` [Mesalamine], the B-score functional assay in test [1] (setting [9]) is reported as -0.331. The Ranking score in test [1] (setting [10]) turned out to be 739.887. In test [2] (setting [11]), this molecule registered a B-score binding assay of 2.828.

Consider `CC(=O)OCC(=O)[C@@]1(O)CC[C@H]2[C@@H]3CCC4=CC(=O)CC[C@]4(C)[C@@]3(F)[C@@H](O)C[C@@]21C` [Fludrocortisone acetate], for which the Ranking score in test [1] (setting [3]) was 430.869. The molecule further came in with a B-score functional assay in test [1] (setting [4]) of 0.011. In test [2] (setting [5]), this molecule yielded a B-score binding assay of -0.826.

`COc1ccc(OC)c(C(O)CNC(=O)CN)c1` (stereo not drawn) [Midodrine hydrochloride]: the B-score functional assay in test [1] (setting [9]) is -0.28. The molecule also showed a Ranking score in test [1] (setting [10]) of 735.356. Moreover, the B-score binding assay in test [2] (setting [11]) came out at 2.033.

`CC(CN1c2ccccc2Sc2ccccc21)N(C)C` (stereo not drawn) [Promethazine hydrochloride] yielded a B-score functional assay in test [1] (setting [6]) of -0.002. Also, the Ranking score in test [1] (setting [7]) is given as 866.133. In addition, the B-score binding assay in test [2] (setting [8]) worked out at 1.811.

In turn, `CC(=O)Oc1ccccc1C(=O)Oc1ccccc1C(=O)O` [Acetylsalicylsalicylic acid] had a B-score functional assay in test [1] (setting [9]) of 0.347. In test [1] (setting [10]), this molecule came in with a Ranking score of 734.743. The molecule also had a B-score binding assay in test [2] (setting [11]) of -0.007.

For `CN(C)CCC=C1c2ccccc2COc2ccccc21` [Doxepin hydrochloride], the Ranking score in test [1] (setting [3]) is reported as 385.759. Further, the B-score functional assay in test [1] (setting [4]) is on record as -1.158. The molecule also yielded a B-score binding assay in test [2] (setting [5]) of 0.002.

In the case of `NC(N)=Nc1nc(CSCCC(N)=NS(N)(=O)=O)cs1` [Famotidine], in test [1] (setting [9]), the B-score functional assay was found to be 0.754. For the same molecule, the Ranking score in test [1] (setting [10]) was found to be 828.628. In addition, the B-score binding assay in test [2] (setting [11]) was determined as 0.039.

For `Cc1onc(-c2ccccc2)c1-c1ccc(S(N)(=O)=O)cc1` [Valdecoxib], the B-score functional assay in test [1] (setting [9]) is recorded as -0.028. This molecule also yielded a Ranking score in test [1] (setting [10]) of 650.385. In addition, the B-score binding assay in test [2] (setting [11]) is listed as 0.051.

Molecule `C#CCN(C)Cc1ccccc1` [Pargyline hydrochloride] yielded a B-score functional assay in test [1] (setting [9]) of -0.107. In test [1] (setting [10]), this molecule displayed a Ranking score of 685.259. Also, in test [2] (setting [11]), the B-score binding assay is reported as 0.419.

As to `O=C(O)COC(=O)Cc1ccccc1Nc1c(Cl)cccc1Cl` [Aceclofenac], the Ranking score in test [1] (setting [3]) amounted to 377.221. In test [1] (setting [4]), this molecule had a B-score functional assay of -0.535. This molecule registered a B-score binding assay in test [2] (setting [5]) of -0.456.

In turn, `CCN(CC)Cc1cc(Nc2ccnc3cc(Cl)ccc23)ccc1O.Cl.Cl.O.O` [Amodiaquin dihydrochloride dihydrate] registered a B-score functional assay in test [1] (setting [9]) of -0.477. This molecule yielded a Ranking score in test [1] (setting [10]) of 658.143. Also, the B-score binding assay in test [2] (setting [11]) turned out to be 1.445.

`CN(C)[C@@H]1C(O)=C(C(N)=O)C(=O)[C@@]2(O)C(O)=C3C(=O)c4c(O)cccc4[C@@](C)(O)[C@H]3[C@H](O)[C@@H]12` [Oxytetracycline dihydrate] registered a B-score functional assay in test [1] (setting [6]) of 0.414. Moreover, the Ranking score in test [1] (setting [7]) was 958.668. In test [2] (setting [8]), this molecule registered a B-score binding assay of 1.019.

In the case of `Nc1nc(O)c2[nH]nnc2n1` [Azaguanine-8], in test [1] (setting [6]), the B-score functional assay worked out at 3.711. The Ranking score in test [1] (setting [7]) stood at 1120.13. The same molecule registered a B-score binding assay in test [2] (setting [8]) of 0.825.

With `Cc1c(N(C)CS(=O)(=O)[O-])c(=O)n(-c2ccccc2)n1C.[Na+]` [Dipyrone], the Ranking score in test [1] (setting [3]) came to 355.307. In test [1] (setting [4]), this molecule registered a B-score functional assay of -0.152. Also, the B-score binding assay in test [2] (setting [5]) is listed as -0.963.

As for `C[C@]12CCC(=O)C=C1C=C[C@@H]1[C@@H]2CC[C@@]2(C)[C@H]1CC[C@@]21CCC(=O)O1` [Canrenone], the Ranking score in test [1] (setting [3]) is recorded as 379.419. Moreover, the B-score functional assay in test [1] (setting [4]) was -0.551. In test [2] (setting [5]), this molecule showed a B-score binding assay of -0.43.

Consider `CCOC(=O)[C@H](CCc1ccccc1)N[C@@H](C)C(=O)N1Cc2ccccc2C[C@H]1C(=O)O` [Quinapril HCl], for which the B-score functional assay in test [1] (setting [6]) amounted to 2.971. Also, in test [1] (setting [7]), the Ranking score amounted to 1103.9. This molecule registered a B-score binding assay in test [2] (setting [8]) of 0.741.

Molecule `CC(C)NC[C@@H](O)c1ccc(O)c(O)c1.O=C(O)C(O)C(O)C(=O)O` [(+)-Isoproterenol (+)-bitartrate salt] returned a B-score functional assay in test [1] (setting [9]) of 2.072. In test [1] (setting [10]), the Ranking score came out at 708.011. Besides, in test [2] (setting [11]), the B-score binding assay was -0.368.

Take `Cc1cc(C(C)(C)C)cc(C)c1CC1=NCCN1` [Xylometazoline hydrochloride]: the Ranking score in test [1] (setting [3]) was found to be 287.23. The B-score functional assay in test [1] (setting [4]) is listed as -0.462. Besides, the B-score binding assay in test [2] (setting [5]) is given as -1.17.

Take `CC(=O)OCC(=O)[C@@]1(OC(C)=O)[C@@H](C)C[C@H]2[C@@H]3C[C@H](F)C4=CC(=O)C=C[C@]4(C)[C@@]3(F)[C@@H](O)C[C@@]21C` [Diflorasone Diacetate]: in test [1] (setting [3]), the Ranking score was found to be 327.658. The molecule also yielded a B-score functional assay in test [1] (setting [4]) of -0.194. Moreover, in test [2] (setting [5]), the B-score binding assay is listed as -1.118.

Turning to `N=C(N)NC(=O)c1nc(Cl)c(N)nc1N` [Amiloride hydrochloride dihydrate], the Ranking score in test [1] (setting [3]) amounted to 420.464. In test [1] (setting [4]), this molecule displayed a B-score functional assay of -1.628. In test [2] (setting [5]), this molecule yielded a B-score binding assay of 1.12.

For the molecule `CN(C)c1ccc(O)c2c1C[C@H]1C[C@H]3[C@H](N(C)C)C(O)=C(C(N)=O)C(=O)[C@@]3(O)C(O)=C1C2=O` [Minocycline hydrochloride], the B-score functional assay in test [1] was 0.089. Moreover, the Ranking score in test [1] (setting [10]) is given as 838.821. This molecule showed a B-score binding assay in test [2] (setting [11]) of 0.626.

On to `c1ccc(CNc2ncnc3[nH]cnc23)cc1` [Aminopurine, 6-benzyl], for which the Ranking score in test [1] (setting [3]) is on record as 337.92. The B-score functional assay in test [1] (setting [4]) was -0.027. Further, in test [2] (setting [5]), the B-score binding assay is reported as -1.308.

In test [1] (setting [6]), `CC(COc1ccccc1)NC(C)C(O)c1ccc(O)cc1` (stereo not drawn) [Isoxsuprine hydrochloride] showed a B-score functional assay of 0.459. For the same molecule, the Ranking score in test [1] (setting [7]) turned out to be 888.476. In test [2] (setting [8]), this molecule registered a B-score binding assay of 0.408.

As for `C=CCN1CC[C@]23c4c5ccc(O)c4O[C@H]2C(=O)CC[C@@]3(O)[C@H]1C5` [Naloxone hydrochloride], in test [1] (combined ranking of functional and binding screening assays), the Ranking score is 578.749. Moreover, the B-score functional assay in test [1] (screening taurocholate uptake, 10 µM drug) is listed as -0.111. This molecule showed a B-score binding assay in test [2] of 0.

Take `C[C@]12CCC(=O)C=C1C=C[C@@H]1[C@@H]2CC[C@@]2(C)[C@H]1CC[C@@]2(O)CCC(=O)[O-].[K+]` [Canrenoic acid potassium salt]: the B-score functional assay in test [1] (setting [9]) is 0.356. Besides, in test [1] (setting [10]), the Ranking score was determined as 751.562. In test [2] (setting [11]), the B-score binding assay stood at 0.007.

Consider `COc1ccc2c(c1)c(CC(=O)OCC(=O)O)c(C)n2C(=O)c1ccc(Cl)cc1` [Acemetacin], for which the B-score functional assay in test [1] (setting [9]) is reported as 0.011. This molecule returned a Ranking score in test [1] (setting [10]) of 813.791. The molecule also returned a B-score binding assay in test [2] (setting [11]) of 0.865.

With `Cc1nc2n(c(=O)c1CCN1CCC(c3noc4cc(F)ccc34)CC1)CCCC2` [Risperidone], the B-score functional assay in test [1] (setting [6]) came to 0.025. The Ranking score in test [1] (setting [7]) is recorded as 888.472. The molecule further came in with a B-score binding assay in test [2] (setting [8]) of 1.724.

(Values after publication PMC5681660, “Reduced hepatitis B and D viral entry using clinically applied drugs as novel inhibitors of the bile acid transporter NTCP” (Scientific Reports, 2017).)
